Values of other authors in publication PMC3945118 (Journal of molecular neuroscience : MN, 2013).

System: rotarod performance
Settings: test not specified; no reference given

Compound: CCCC(CCC)C(=O)O [valproic acid]
- Therapeutic Index (TI) of known anticonvulsant: ~1
